According to BindingDB's records for patent US20260007681 (University Of Michigan, 2026):

Target: DNA damage-binding protein 1/Protein cereblon (Homo sapiens, UniProt Q96SW2)
Method: The binding potency was determined using H-TRF assay technology (Perkin Elmer). Compounds were serially diluted in DMSO and 0.2 μL volume was transferred to white 384-well plate.

DNA damage-binding protein 1/Protein cereblon, sequence (Q16531 whole entry): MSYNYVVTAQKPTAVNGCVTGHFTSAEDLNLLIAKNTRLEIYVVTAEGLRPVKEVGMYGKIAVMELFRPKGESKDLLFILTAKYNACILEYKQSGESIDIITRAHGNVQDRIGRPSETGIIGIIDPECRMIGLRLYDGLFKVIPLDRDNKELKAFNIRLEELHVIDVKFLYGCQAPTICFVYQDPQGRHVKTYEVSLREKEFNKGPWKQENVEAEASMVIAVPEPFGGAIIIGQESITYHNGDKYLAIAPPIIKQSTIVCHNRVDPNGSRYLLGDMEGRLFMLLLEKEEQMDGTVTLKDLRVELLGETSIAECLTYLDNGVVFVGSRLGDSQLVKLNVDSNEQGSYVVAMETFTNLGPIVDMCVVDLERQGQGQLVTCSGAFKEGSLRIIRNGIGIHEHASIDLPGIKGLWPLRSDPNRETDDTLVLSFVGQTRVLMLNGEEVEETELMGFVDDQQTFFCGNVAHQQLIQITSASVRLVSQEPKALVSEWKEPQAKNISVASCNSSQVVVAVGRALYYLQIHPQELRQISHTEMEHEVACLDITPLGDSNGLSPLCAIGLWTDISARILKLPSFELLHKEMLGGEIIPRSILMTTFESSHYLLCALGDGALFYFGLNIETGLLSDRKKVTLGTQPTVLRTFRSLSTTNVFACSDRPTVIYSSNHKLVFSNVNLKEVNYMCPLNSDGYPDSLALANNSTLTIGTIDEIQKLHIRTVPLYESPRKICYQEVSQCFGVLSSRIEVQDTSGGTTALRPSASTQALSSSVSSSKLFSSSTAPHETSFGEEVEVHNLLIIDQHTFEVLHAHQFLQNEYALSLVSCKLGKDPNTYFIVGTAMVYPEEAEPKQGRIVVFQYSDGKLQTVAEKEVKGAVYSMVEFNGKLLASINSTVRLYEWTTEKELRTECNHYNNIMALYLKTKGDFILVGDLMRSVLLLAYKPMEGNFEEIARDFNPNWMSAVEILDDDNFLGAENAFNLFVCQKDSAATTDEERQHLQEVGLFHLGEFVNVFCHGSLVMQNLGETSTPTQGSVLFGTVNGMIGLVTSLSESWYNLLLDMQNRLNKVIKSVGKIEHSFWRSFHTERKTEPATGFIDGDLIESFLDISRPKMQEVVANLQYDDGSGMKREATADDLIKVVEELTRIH
DNA damage-binding protein 1/Protein cereblon, sequence (Q96SW2 whole entry): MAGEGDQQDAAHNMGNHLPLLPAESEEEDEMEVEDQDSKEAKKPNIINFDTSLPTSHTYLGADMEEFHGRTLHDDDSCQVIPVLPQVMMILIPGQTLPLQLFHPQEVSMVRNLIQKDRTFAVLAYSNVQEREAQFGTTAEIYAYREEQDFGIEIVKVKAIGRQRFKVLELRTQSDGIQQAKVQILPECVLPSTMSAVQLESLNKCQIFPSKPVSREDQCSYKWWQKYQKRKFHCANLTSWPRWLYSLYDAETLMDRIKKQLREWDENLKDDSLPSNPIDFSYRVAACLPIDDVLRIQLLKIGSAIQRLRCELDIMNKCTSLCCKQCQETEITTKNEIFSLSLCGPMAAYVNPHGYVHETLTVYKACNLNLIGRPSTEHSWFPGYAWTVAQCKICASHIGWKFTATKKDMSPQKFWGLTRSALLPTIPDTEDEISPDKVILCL

For C[C@@H]1Cc2c([nH]c3ccccc23)[C@@H](c2cnc(N3CCC(N4CCN(c5ccc(NC6CCC(=O)NC6=O)cc5F)CC4)CC3)nc2)N1CC(C)(C)F (stereo partly specified) [US20260007681, Compound A2], the IC50 was 500 to 5000 nM.
